In ChEMBL document CHEMBL3046629, “Fungicidal Activities of 2-Methoxy-2-[2-(benzylideneaminooxymethyl)phenyl]-N-methylacetamide Derivatives” (2002):

Experiments:
Type in all cases: functional
[1] = test system: Podosphaera fuliginea; experiment: Fungicidal activity against Podosphaera fuliginea assessed as cucumber powdery mildew disease control at 7.8 ppm treated on upper surface of leaf 24 hr before inoculation at 23 +/- 2 degC measured after 10 days by preventive manner
[2] = test system: Pseudoperonospora cubensis; experiment: Fungicidal activity against Pseudoperonospora cubensis assessed as cucumber downy mildew disease control at 7.8 ppm foliar application 24 hr before inoculation onto the adaxial(treated) surface of leaf by preventive manner
[3] = test system: Botrytis cinerea; experiment: Fungicidal activity against Botryotinia fuckeliana assessed as cucumber gray mold disease control at 7.8 ppm treated on upper surface of leaf 24 hr before inoculation at 22 +/- 2 degC measured after 3 days by preventive manner
[4] = test system: Pseudoperonospora cubensis; experiment: Fungicidal activity against Pseudoperonospora cubensis assessed as cucumber downy mildew disease control at 31.3 ppm foliar application 24 hr before inoculation onto the abaxial(treated) surface of leaf by preventive manner
[5] = test system: Botrytis cinerea; experiment: Fungicidal activity against Botryotinia fuckeliana assessed as cucumber gray mold disease control at 500 ppm treated on upper surface of leaf 24 hr before inoculation at 22 +/- 2 degC measured after 3 days by preventive manner
[6] = test system: Podosphaera fuliginea; experiment: Fungicidal activity against Podosphaera fuliginea assessed as cucumber powdery mildew disease control at 500 ppm treated on upper surface of leaf 24 hr before inoculation at 23 +/- 2 degC measured after 10 days by preventive manner
[7] = test system: Pseudoperonospora cubensis; experiment: Fungicidal activity against Pseudoperonospora cubensis assessed as cucumber downy mildew disease control at 500 ppm foliar application 24 hr before inoculation onto the abaxial(treated) surface of leaf by preventive manner
[8] = test system: Pseudoperonospora cubensis; experiment: Fungicidal activity against Pseudoperonospora cubensis assessed as cucumber downy mildew disease control at 500 ppm foliar application 24 hr before inoculation onto the adaxial(treated) surface of leaf by preventive manner
[9] = test system: Pseudoperonospora cubensis; experiment: Fungicidal activity against Pseudoperonospora cubensis assessed as cucumber downy mildew disease control at 125 ppm foliar application 24 hr before inoculation onto the adaxial(treated) surface of leaf by preventive manner
[10] = test system: Pseudoperonospora cubensis; experiment: Fungicidal activity against Pseudoperonospora cubensis assessed as cucumber downy mildew disease control at 2 ppm foliar application 24 hr after inoculation by curative manner
[11] = test system: Pseudoperonospora cubensis; experiment: Fungicidal activity against Pseudoperonospora cubensis assessed as cucumber downy mildew disease control at 31.3 ppm foliar application 24 hr after inoculation by curative manner
[12] = test system: Pseudoperonospora cubensis; experiment: Fungicidal activity against Pseudoperonospora cubensis assessed as cucumber downy mildew disease control at 125 ppm foliar application 24 hr before inoculation onto the abaxial(treated) surface of leaf by preventive manner
[13] = test system: Pseudoperonospora cubensis; experiment: Fungicidal activity against Pseudoperonospora cubensis assessed as cucumber downy mildew disease control at 7.8 ppm foliar application 24 hr after inoculation by curative manner
[14] = test system: Pseudoperonospora cubensis; experiment: Fungicidal activity against Pseudoperonospora cubensis assessed as cucumber downy mildew disease control at 125 ppm foliar application 24 hr after inoculation by curative manner
[15] = test system: Pseudoperonospora cubensis; experiment: Fungicidal activity against Pseudoperonospora cubensis assessed as cucumber downy mildew disease control at 2 ppm foliar application 24 hr before inoculation onto the abaxial(treated) surface of leaf by preventive manner
[16] = test system: Pseudoperonospora cubensis; experiment: Fungicidal activity against Pseudoperonospora cubensis assessed as cucumber downy mildew disease control at 7.8 ppm foliar application 24 hr before inoculation onto the abaxial(treated) surface of leaf by preventive manner
[17] = test system: Pseudoperonospora cubensis; experiment: Fungicidal activity against Pseudoperonospora cubensis assessed as cucumber downy mildew disease control at 2 ppm foliar application 24 hr before inoculation onto the adaxial(treated) surface of leaf by preventive manner
[18] = test system: Pseudoperonospora cubensis; experiment: Fungicidal activity against Pseudoperonospora cubensis assessed as cucumber downy mildew disease control at 31.3 ppm foliar application 24 hr before inoculation onto the adaxial(treated) surface of leaf by preventive manner
[19] = test system: Botrytis cinerea; experiment: Fungicidal activity against Botryotinia fuckeliana assessed as cucumber gray mold disease control at 31.3 ppm treated on upper surface of leaf 24 hr before inoculation at 22 +/- 2 degC measured after 3 days by preventive manner
[20] = test system: Podosphaera fuliginea; experiment: Fungicidal activity against Podosphaera fuliginea assessed as cucumber powdery mildew disease control at 31.3 ppm treated on upper surface of leaf 24 hr before inoculation at 23 +/- 2 degC measured after 10 days by preventive manner
[21] = test system: Botrytis cinerea; experiment: Fungicidal activity against Botryotinia fuckeliana assessed as cucumber gray mold disease control at 125 ppm treated on upper surface of leaf 24 hr before inoculation at 22 +/- 2 degC measured after 3 days by preventive manner

Structure (SMILES)	Activity [1] [%]	Activity [2] [%]	Activity [3] [%]	Activity [5] [%]	Activity [7] [%]	Activity [8] [%]	also measured
CNC(=O)C(OC)c1ccccc1CO/N=C(\C)c1ccc(Br)cc1 (racemic)	90	90	50	–	–	–	Activity [4]: 90%
CNC(=O)C(OC)c1ccccc1CO/N=C(\C)c1cc(C)ccc1C (racemic)	–	–	–	<50	<90	90	Activity [6]: 90%
CNC(=O)C(OC)c1ccccc1CO/N=C(\C)c1ccc(-c2ccccc2)cc1 (racemic)	90	–	50	–	<90	<90	–
CNC(=O)C(OC)c1ccccc1CO/N=C(\C)c1cc(C)cc(C)c1C (racemic)	90	–	–	50	<90	90	–
CNC(=O)C(OC)c1ccccc1CO/N=C(/C)c1ccc(C(F)(F)F)cc1 (racemic)	90	–	–	50	<90	–	Activity [9]: 90%
CNC(=O)C(OC)c1ccccc1CO/N=C(\C)c1ccc(Cl)cc1 (racemic)	90	100	50	–	97	100	Activity [10]: 0%; Activity [11]: 50%; Activity [12]: 85%; Activity [13]: 5%; Activity [14]: 70%; Activity [15]: 0%; Activity [16]: 0%; Activity [17]: 0%; Activity [18]: 100%; Activity [4]: 70%; Activity [9]: 100%
CCc1ccc(/C(C)=N/OCc2ccccc2C(OC)C(=O)NC)cc1 (racemic)	90	90	50	–	90	–	–
CNC(=O)C(OC)c1ccccc1CO/N=C(\C)c1ccc(C(C)(C)C)cc1 (racemic)	90	–	–	–	<90	90	Activity [19]: 50%
CNC(=O)C(OC)c1ccccc1CO/N=C(\C)c1ccc(OC)cc1 (racemic)	–	0	50	–	90	100	Activity [10]: 0%; Activity [11]: 20%; Activity [12]: 50%; Activity [13]: 0%; Activity [14]: 75%; Activity [15]: 0%; Activity [16]: 0%; Activity [17]: 0%; Activity [18]: 100%; Activity [4]: 0%; Activity [9]: 100%; Activity [20]: 90%
CC/C(=N\OCc1ccccc1C(OC)C(=O)NC)c1ccc(Cl)cc1 (racemic)	90	90	50	–	–	–	Activity [16]: 90%
CNC(=O)C(OC)c1ccccc1CO/N=C(\C)c1ccc(C(F)(F)F)cc1 (racemic)	90	100	50	–	100	100	Activity [10]: 25%; Activity [11]: 70%; Activity [12]: 96%; Activity [13]: 40%; Activity [14]: 75%; Activity [15]: 15%; Activity [16]: 40%; Activity [17]: 100%; Activity [18]: 100%; Activity [4]: 91%; Activity [9]: 100%
CNC(=O)C(OC)c1ccccc1CO/N=C(/C)c1ccc(OC)cc1 (racemic)	–	–	–	50	<90	90	Activity [6]: 90%
CNC(=O)C(OC)c1ccccc1CO/N=C(\C)c1ccccc1Cl (racemic)	–	–	–	50	<90	90	Activity [6]: 90%
CCC/C(=N\OCc1ccccc1C(OC)C(=O)NC)c1ccc(Cl)cc1 (racemic)	90	90	–	–	–	–	Activity [21]: 50%; Activity [4]: 90%
CNC(=O)C(OC)c1ccccc1CO/N=C/c1ccccc1 (racemic)	–	–	–	50	<90	<90	Activity [6]: <90%
CNC(=O)C(OC)c1ccccc1CO/N=C(\C)c1ccc(Cl)c(Cl)c1 (racemic)	90	90	50	–	–	–	Activity [4]: 90%
CNC(=O)C(OC)c1ccccc1CO/N=C(\C)c1ccccc1 (racemic)	–	–	–	–	<90	<90	Activity [19]: 50%; Activity [20]: 90%

Structure (SMILES)	Activity [1] [%]	Activity [2] [%]	Activity [3] [%]	Activity [5] [%]	Activity [7] [%]	Activity [8] [%]	also measured
CNC(=O)C(OC)c1ccccc1COCc1ccccc1 (racemic)	–	–	–	<50	<90	90	Activity [6]: <90%
CNC(=O)C(OC)c1ccccc1COC(=O)c1ccccc1 (racemic)	–	–	–	<50	<90	90	Activity [6]: <90%
CNC(=O)C(OC)c1ccccc1CO/N=C(\C)c1ccc(C)c(C)c1 (racemic)	90	90	–	–	–	–	Activity [12]: 90%; Activity [19]: 50%
CNC(=O)C(OC)c1ccccc1CO/N=C(\C)c1ccc([N+](=O)[O-])cc1 (racemic)	–	–	–	–	<90	90	Activity [21]: 50%; Activity [6]: 90%
CNC(=O)C(OC)c1ccccc1CO/N=C(\C)c1cccc(Cl)c1 (racemic)	90	90	50	–	–	–	Activity [4]: 90%
CCOc1ccc(/C(C)=N/OCc2ccccc2C(OC)C(=O)NC)cc1 (racemic)	90	–	–	–	<90	90	Activity [19]: 50%
CNC(=O)C(OC)c1ccccc1CO/N=C(\C)c1ccc(O)cc1 (racemic)	–	–	–	<50	<90	90	Activity [6]: <90%
CNC(=O)C(OC)c1ccccc1CO/N=C(\C)c1ccccc1C(F)(F)F (racemic)	–	–	–	<50	<90	<90	Activity [6]: 90%
CNC(=O)C(OC)c1ccccc1CO/N=C(/C)c1ccc(Cl)cc1 (racemic)	–	–	–	50	<90	–	Activity [9]: 90%; Activity [20]: 90%
CNC(=O)C(OC)c1ccccc1Oc1ccccc1 (racemic)	–	–	–	<50	<90	<90	Activity [6]: <90%
CNC(=O)C(OC)c1ccccc1CO/N=C(\C)c1cccc(C(F)(F)F)c1 (racemic)	90	90	50	–	90	–	–
CNC(=O)C(OC)c1ccccc1CO/N=C(\C)c1ccc(C)cc1C (racemic)	–	–	–	–	90	–	Activity [19]: 50%; Activity [9]: 90%; Activity [20]: 90%
CNC(=O)C(OC)c1ccccc1CO/N=C(/SC)c1ccc(Cl)cc1 (racemic)	–	100	–	50	97	100	Activity [10]: 10%; Activity [11]: 60%; Activity [12]: 64%; Activity [13]: 35%; Activity [14]: 87%; Activity [15]: 20%; Activity [16]: 40%; Activity [17]: 100%; Activity [18]: 100%; Activity [4]: 50%; Activity [9]: 100%; Activity [20]: 90%
CNC(=O)C(OC)c1ccccc1CO/N=C(\C)c1ccc(Cl)cc1Cl (racemic)	–	–	–	–	<90	–	Activity [19]: 50%; Activity [20]: 90%
CCCCOc1ccc(/C(C)=N/OCc2ccccc2C(OC)C(=O)NC)cc1 (racemic)	–	–	–	–	<90	90	Activity [19]: 50%; Activity [20]: 90%
CNC(=O)C(OC)c1ccccc1CO/N=C(\C)c1ccc(C)cc1 (racemic)	90	90	50	–	90	–	–
CNC(=O)C(OC)c1ccccc1CO/N=C(\C)c1ccc(F)cc1 (racemic)	90	–	–	–	–	–	Activity [18]: 90%; Activity [19]: 50%; Activity [4]: 90%
